The supplement of paper PMC10307832

Legend:
Assay in all cases: relative viability (nuclei count vs DMSO), 5 days (fraction); higher = more cells survive
HCC-15 = tested on: HCC-15
Procedure, shortened: (§1)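 Relative viability was taken as the ratio of nuclei in treated wells to nuclei in vehicle wells. Lung cancer cell lines in 1536-well plates received compounds by pin tool one day after seeding, either one drug alone or a fixed anchor-drug dose plus five library-drug doses (not always all listed) in √10 steps. Nuclei were counted on 4× images after 5 days of treatment, and values are medians of duplicate plates.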

NCI-H441 = tested on: NCI-H441
Procedure, shortened: as §1

NCI-H358 = tested on: NCI-H358
Procedure, shortened: as §1

NCI-H1975 = tested on: NCI-H1975
Procedure, shortened: as §1

NCI-H1666 = tested on: NCI-H1666
Procedure, shortened: as §1

A-427 = tested on: A-427
Procedure, shortened: as §1

COR-L23 = tested on: COR-L23
Procedure, shortened: as §1

LK-2 = tested on: LK-2
Procedure, shortened: as §1

EKVX = tested on: EKVX
Procedure, shortened: as §1

BEN = tested on: BEN
Procedure, shortened: as §1

NCI-H650 = tested on: NCI-H650
Procedure, shortened: as §1

SK-MES-1 = tested on: SK-MES-1
Procedure, shortened: as §1

HCC-827 = tested on: HCC-827
Procedure, shortened: as §1

SW 900 = tested on: SW 900
Procedure, shortened: as §1

NCI-H23 = tested on: NCI-H23
Procedure, shortened: as §1

201T = tested on: 201T
Procedure, shortened: as §1

NCI-H596 = tested on: NCI-H596
Procedure, shortened: as §1

COR-L 105 = tested on: COR-L 105
Procedure, shortened: as §1

NCI-H1437 = tested on: NCI-H1437
Procedure, shortened: as §1

HARA = tested on: HARA
Procedure, shortened: as §1

NCI-H838 = tested on: NCI-H838
Procedure, shortened: as §1

Which relative viability (HCC-15; first compound 0.01 µM) does the source give for `NC(=O)Nc1cc(-c2cccc(F)c2)sc1C(=O)N[C@H]1CCCNC1` [AZD7762] + COc1cc2c(Oc3ccc(NC(=O)C4(C(=O)Nc5ccc(F)cc5)CC4)cc3F)ccnc2cc1OCCCN1CCOCC1 [Foretinib] (partner 0.25 µM) here?
The relative viability was 1.06.

And the relative viability (HCC-15; first compound 0.03162 µM)?
The relative viability was 0.995.

And the relative viability (HCC-15; first compound 0.1 µM)?
The relative viability was 0.993.

And the relative viability (HCC-15; first compound 0.3162 µM)?
The relative viability was 1.06.

What about the relative viability (HCC-15; first compound 1 µM) of the same compound?
The relative viability was 0.983.

And the relative viability (NCI-H441; first compound 0.01 µM)?
The relative viability was 1.3.

What about the relative viability (NCI-H441; first compound 0.03162 µM) of the same compound?
The relative viability was 1.07.

What about the relative viability (NCI-H441; first compound 0.1 µM) of the same compound?
Its relative viability is 1.11.

What about the relative viability (NCI-H441; first compound 0.3162 µM) of the same compound?
Its relative viability is 1.19.

And the relative viability (NCI-H441; first compound 1 µM)?
Its relative viability is 0.955.

What about the relative viability (NCI-H358; first compound 0.01 µM) of the same compound?
The relative viability was 0.532.

And the relative viability (NCI-H358; first compound 0.03162 µM)?
Its relative viability is 0.76.

And the relative viability (NCI-H358; first compound 0.1 µM)?
The relative viability was 0.628.

What about the relative viability (NCI-H358; first compound 0.3162 µM) of the same compound?
Its relative viability is 0.647.

And the relative viability (NCI-H358; first compound 1 µM)?
The relative viability was 0.378.

What about the relative viability (NCI-H1975; first compound 0.01 µM) of the same compound?
Its relative viability is 0.926.

What about the relative viability (NCI-H1975; first compound 0.03162 µM) of the same compound?
Its relative viability is 0.943.

What about the relative viability (NCI-H1975; first compound 0.1 µM) of the same compound?
Its relative viability is 0.964.

And the relative viability (NCI-H1975; first compound 0.3162 µM)?
The relative viability was 0.854.

What about the relative viability (NCI-H1975; first compound 1 µM) of the same compound?
Its relative viability is 0.624.

And the relative viability (NCI-H1666; first compound 0.01 µM)?
Its relative viability is 1.03.

And the relative viability (NCI-H1666; first compound 0.03162 µM)?
The relative viability was 1.07.

And the relative viability (NCI-H1666; first compound 0.1 µM)?
Its relative viability is 1.14.

And the relative viability (NCI-H1666; first compound 0.3162 µM)?
Its relative viability is 1.12.

What about the relative viability (NCI-H1666; first compound 1 µM) of the same compound?
Its relative viability is 0.849.

What about the relative viability (A-427; first compound 0.01 µM) of the same compound?
Its relative viability is 1.08.

And the relative viability (A-427; first compound 0.03162 µM)?
The relative viability was 0.976.

And the relative viability (A-427; first compound 0.1 µM)?
The relative viability was 1.03.

And the relative viability (A-427; first compound 0.3162 µM)?
The relative viability was 0.781.

And the relative viability (A-427; first compound 1 µM)?
Its relative viability is 0.755.

And the relative viability (COR-L23; first compound 0.01 µM)?
The relative viability was 1.18.

And the relative viability (COR-L23; first compound 0.03162 µM)?
The relative viability was 0.955.

And the relative viability (COR-L23; first compound 0.1 µM)?
The relative viability was 1.08.

What about the relative viability (COR-L23; first compound 0.3162 µM) of the same compound?
Its relative viability is 0.842.

What about the relative viability (COR-L23; first compound 1 µM) of the same compound?
Its relative viability is 0.292.

What about the relative viability (LK-2; first compound 0.01 µM) of the same compound?
Its relative viability is 1.38.

What about the relative viability (LK-2; first compound 0.03162 µM) of the same compound?
Its relative viability is 1.34.

And the relative viability (LK-2; first compound 0.1 µM)?
The relative viability was 1.11.

What about the relative viability (LK-2; first compound 0.3162 µM) of the same compound?
The relative viability was 0.864.

And the relative viability (LK-2; first compound 1 µM)?
The relative viability was 0.722.

What about the relative viability (EKVX; first compound 0.01 µM) of the same compound?
Its relative viability is 0.64.

What about the relative viability (EKVX; first compound 0.03162 µM) of the same compound?
Its relative viability is 0.741.

What about the relative viability (EKVX; first compound 0.1 µM) of the same compound?
The relative viability was 0.956.

And the relative viability (EKVX; first compound 0.3162 µM)?
The relative viability was 0.387.

And the relative viability (EKVX; first compound 1 µM)?
Its relative viability is 0.522.

And the relative viability (BEN; first compound 0.01 µM)?
Its relative viability is 0.714.

And the relative viability (BEN; first compound 0.03162 µM)?
The relative viability was 0.747.

And the relative viability (BEN; first compound 0.1 µM)?
The relative viability was 0.621.

And the relative viability (BEN; first compound 0.3162 µM)?
The relative viability was 0.507.

And the relative viability (BEN; first compound 1 µM)?
The relative viability was 0.596.

What about the relative viability (NCI-H650; first compound 0.01 µM) of the same compound?
The relative viability was 1.13.

And the relative viability (NCI-H650; first compound 0.03162 µM)?
The relative viability was 0.991.

And the relative viability (NCI-H650; first compound 0.1 µM)?
The relative viability was 1.03.

What about the relative viability (NCI-H650; first compound 0.3162 µM) of the same compound?
Its relative viability is 1.03.

And the relative viability (NCI-H650; first compound 1 µM)?
The relative viability was 1.05.

And the relative viability (SK-MES-1; first compound 0.01 µM)?
The relative viability was 0.83.

And the relative viability (SK-MES-1; first compound 0.03162 µM)?
The relative viability was 0.973.

What about the relative viability (SK-MES-1; first compound 0.1 µM) of the same compound?
The relative viability was 1.02.

What about the relative viability (SK-MES-1; first compound 0.3162 µM) of the same compound?
Its relative viability is 0.903.

And the relative viability (SK-MES-1; first compound 1 µM)?
Its relative viability is 0.528.

And the relative viability (HCC-827; first compound 0.01 µM)?
Its relative viability is 0.975.

What about the relative viability (HCC-827; first compound 0.03162 µM) of the same compound?
The relative viability was 1.06.

And the relative viability (HCC-827; first compound 0.1 µM)?
Its relative viability is 1.02.

And the relative viability (HCC-827; first compound 0.3162 µM)?
Its relative viability is 1.08.

And the relative viability (HCC-827; first compound 1 µM)?
The relative viability was 0.853.

What about the relative viability (SW 900; first compound 0.01 µM) of the same compound?
Its relative viability is 0.777.

And the relative viability (SW 900; first compound 0.03162 µM)?
Its relative viability is 0.84.

What about the relative viability (SW 900; first compound 0.1 µM) of the same compound?
Its relative viability is 1.29.

What about the relative viability (SW 900; first compound 0.3162 µM) of the same compound?
Its relative viability is 0.825.

What about the relative viability (SW 900; first compound 1 µM) of the same compound?
The relative viability was 0.533.

What about the relative viability (NCI-H23; first compound 0.01 µM) of the same compound?
The relative viability was 0.886.

And the relative viability (NCI-H23; first compound 0.03162 µM)?
Its relative viability is 1.09.

And the relative viability (NCI-H23; first compound 0.1 µM)?
The relative viability was 0.976.

What about the relative viability (NCI-H23; first compound 0.3162 µM) of the same compound?
Its relative viability is 1.11.

What about the relative viability (NCI-H23; first compound 1 µM) of the same compound?
Its relative viability is 0.366.

And the relative viability (201T; first compound 0.01 µM)?
Its relative viability is 1.17.

What about the relative viability (201T; first compound 0.03162 µM) of the same compound?
Its relative viability is 1.26.

What about the relative viability (201T; first compound 0.1 µM) of the same compound?
The relative viability was 1.11.

And the relative viability (201T; first compound 0.3162 µM)?
Its relative viability is 0.961.

What about the relative viability (201T; first compound 1 µM) of the same compound?
Its relative viability is 0.279.

And the relative viability (NCI-H596; first compound 0.01 µM)?
The relative viability was 0.993.

What about the relative viability (NCI-H596; first compound 0.03162 µM) of the same compound?
Its relative viability is 1.04.

What about the relative viability (NCI-H596; first compound 0.1 µM) of the same compound?
The relative viability was 1.01.

And the relative viability (NCI-H596; first compound 0.3162 µM)?
The relative viability was 0.923.

And the relative viability (NCI-H596; first compound 1 µM)?
The relative viability was 0.744.

And the relative viability (COR-L 105; first compound 0.01 µM)?
The relative viability was 1.25.

What about the relative viability (COR-L 105; first compound 0.03162 µM) of the same compound?
The relative viability was 1.01.

And the relative viability (COR-L 105; first compound 0.1 µM)?
Its relative viability is 1.01.

And the relative viability (COR-L 105; first compound 0.3162 µM)?
Its relative viability is 1.09.

And the relative viability (COR-L 105; first compound 1 µM)?
Its relative viability is 0.643.

What about the relative viability (NCI-H1437; first compound 0.01 µM) of the same compound?
Its relative viability is 1.27.

What about the relative viability (NCI-H1437; first compound 0.03162 µM) of the same compound?
Its relative viability is 1.31.

And the relative viability (NCI-H1437; first compound 0.1 µM)?
The relative viability was 1.24.

What about the relative viability (NCI-H1437; first compound 0.3162 µM) of the same compound?
Its relative viability is 1.02.

And the relative viability (NCI-H1437; first compound 1 µM)?
The relative viability was 1.13.

What about the relative viability (HARA; first compound 0.01 µM) of the same compound?
Its relative viability is 0.888.

What about the relative viability (HARA; first compound 0.03162 µM) of the same compound?
The relative viability was 0.932.

What about the relative viability (HARA; first compound 0.1 µM) of the same compound?
Its relative viability is 0.91.

What about the relative viability (HARA; first compound 0.3162 µM) of the same compound?
Its relative viability is 0.866.

And the relative viability (HARA; first compound 1 µM)?
Its relative viability is 0.197.

And the relative viability (NCI-H838; first compound 0.01 µM)?
Its relative viability is 1.1.

What about the relative viability (NCI-H838; first compound 0.03162 µM) of the same compound?
The relative viability was 1.07.

And the relative viability (NCI-H838; first compound 0.1 µM)?
Its relative viability is 1.04.

And the relative viability (NCI-H838; first compound 0.3162 µM)?
Its relative viability is 0.992.

And the relative viability (NCI-H838; first compound 1 µM)?
Its relative viability is 0.553.
